Drawing on patent US20100056516A1 (priority 2006, published 2010), this text covers IC50 for 25 compounds.

For one experiment, the system named is HXB2 virus. The experiment is described as follows: microbe, parasite or virus in culture. In kind it is cell-based, HIV. The conditions noted are these: Human immunodeficiency virus 1, HXB2, HeLaP4-2, read-out: antiviral IC50 (SCIA-B). Here is the method:
An assay for measuring the inhibition of acute HIV infection with HeLa P4-2 cells in a single cycle infectivity assay (SCIA-A) was conducted in accordance with Joyce, J. G., et al., J. Biol. Chem., 2002, 277, 45811, Hazuda, D. J. et al., Science, 2000, 287, 646, and Kimpton, J. et al, J. Virol. 1992, 66, 2232. Infectious virus was produced by transfecting 293T cells with HIV proviral DNA in which the integrase gene was derived from a IIIB isolate and the remainder of the HIV genome was derived from the NL4-3 isolate.
This assay B for measuring the inhibition of acute HIV infection with HeLa P4-2 cells in a single cycle infectivity assay (SCIA-B) is essentially the same as Assay A described above, except that HXB2 virus is employed instead of the IIIb isolate.

For the next experiment, the target named is HIV integrase (Human immunodeficiency virus type 1 group M subtype B, UniProt P04585). Nature of the experiment: integrase strand transfer assay (STA). In kind it is biochemical. As to conditions: integrase strand transfer; read-out: IC50 in the STA assay.

In the case of `CCOC(=O)c1c(O)c2cc(C(=O)NCc3cccc(OC)c3)cnc2n(O)c1=O` [Example 78, Ethyl 1,4-dihydroxy-6-{[3-methoxybenzyl)amino] carbonyl}-2-oxo-1,2-dihydro-1,8-naphthyridine-3-carboxylate], the values for the IC50 in the experiment with HXB2 virus and at HIV integrase were less than 100 µM and less than 50 µM, respectively.
`CCOC(=O)c1c(O)c2cc(C(=O)NCc3ccccc3OC)cnc2n(O)c1=O` [Example 79, Ethyl 1,4-dihydroxy-6-{[2-methoxybenzyl)amino] carbonyl}-2-oxo-1,2-dihydro-1,8-naphthyridine-3-carboxylate]: the IC50 is less than 100 µM in the experiment on HXB2 virus and less than 50 µM at HIV integrase.
Turning to `CCOC(=O)c1c(O)c2cc(C(=O)N(C)Cc3ccccc3)cnc2n(O)c1=O` [Example 80, Ethyl 6-{[benzyl(methyl)amino]carbonyl}-1,4-dihydroxy-2-oxo-1,2-dihydro-1,8-naphthyridine-3-carboxylate], the 50% inhibitory concentration (IC50) with HXB2 virus was less than 100 µM; on HIV integrase it was less than 50 µM.
In the same order, the values of `CCOC(=O)c1c(O)c2cc(C(=O)N3CCCCC3CCc3ccccc3)cnc2n(O)c1=O` (centres unmarked) [Example 82, Ethyl 1,4-dihydroxy-2-oxo-6-{[2-(2-phenylethyl)piperidin-1-yl]carbonyl}-1,2-dihydro-1,8-naphthyridine-3-carboxylate] are less than 100 µM and less than 50 µM.
Turning to `CCOC(=O)c1c(O)c2cc(C(=O)N3CCC(CCCc4ccccc4)CC3)cnc2n(O)c1=O` [Example 83, Ethyl 1,4-dihydroxy-2-oxo-6-{[4-(3-phenylpropyl)piperidin-1-yl]carbonyl}-1,2-dihydro-1,8-naphthyridine-3-carboxylate], the results for the IC50 with HXB2 virus and at HIV integrase were less than 100 µM and less than 50 µM, respectively.
Consider `CCOC(=O)c1c(O)c2cc(C(=O)N3CCC(CCc4ccccc4)CC3)cnc2n(O)c1=O` [Example 84, Ethyl 1,4-dihydroxy-2-oxo-6-{[4-(2-phenylethyl)piperidin-1-yl]carbonyl}-1,2-dihydro-1,8-naphthyridine-3-carboxylate], for which the IC50 was less than 100 µM in the experiment on HXB2 virus and less than 50 µM at HIV integrase.
As to `CCOC(=O)c1c(O)c2cc(C(=O)N3CCC(Cc4ccccc4)C3)cnc2n(O)c1=O` (centres unmarked) [Example 85, Ethyl 6-[(3-benzylpyrrolidin-1-yl)carbonyl]-1,4-dihydroxy-2-oxo-1,2-dihydro-1,8-naphthyridine-3-carboxylate], the values for the IC50 with HXB2 virus and at HIV integrase were less than 100 µM and less than 50 µM, respectively.
For `CCOC(=O)c1c(O)c2cc(C(=O)NC3CCCCC3)cnc2n(O)c1=O` [Example 86, ethyl-6-[(cyclohexylamino)carbonyl]-1,4-dihydroxy-2-oxo-1,2-dihydro-1,8-naphthyridine-3-carboxylate], the IC50 with HXB2 virus was less than 100 µM; on HIV integrase it was less than 50 µM.
As for `O=C(NCc1ccccc1)c1cnc2c(c1)c(O)c(C(=O)NCc1ccccc1)c(=O)n2O` [Example 87, N,N′-Dibenzyl-1,4-dihydroxy-2-oxo-1,2-dihydro-1,8-naphthyridine-3,6-dicarboxamide], the IC50 with HXB2 virus is less than 100 µM; on HIV integrase, less than 50 µM.
For the compound `CCOC(=O)c1ccnc2c1c(O)cc(=O)n2O` [Example 88, Ethyl 5,8-dihydroxy-7-oxo-7,8-dihydro-1,8-naphthyridine-4-carboxylate], the figures for the IC50 with HXB2 virus and at HIV integrase were less than 100 µM and less than 50 µM, respectively.
`CCOC(=O)c1c(O)c2cc(Oc3ccc(N)cc3)cnc2n(O)c1=O` [Example 89, Ethyl 6-(4-aminophenoxy)-1,4-dihydroxy-2-oxo-1,2-dihydro-1,8-naphthyridine-3-carboxylate]: the values for the IC50 in the experiment with HXB2 virus and at HIV integrase were less than 100 µM and less than 50 µM, respectively.
Turning to `CCOC(=O)c1c(O)c2cc(Oc3ccc(N(CC)CC)cc3)cnc2n(O)c1=O` [Example 90, Ethyl 6-[4-(diethylamino)phenoxy]-1,4-dihydroxy-2-oxo-1,2-dihydro-1,8-naphthyridine-3-carboxylate], the IC50 with HXB2 virus is less than 100 µM; at HIV integrase, less than 50 µM.
Turning to `COC(=O)c1cnc2c(c1)c(O)c(C(=O)NCc1ccccc1)c(=O)n2O` [Example 91, Methyl 6-[(benzylamino)carbonyl]-5,8-dihydroxy-7-oxo-7,8-dihydro-1,8-naphthyridine-3-carboxylate], the IC50 in the experiment on HXB2 virus is less than 100 µM; on HIV integrase, less than 50 µM.
With `CCOC(=O)c1cnc2c(c1)c(O)c(C(=O)NCc1ccccc1)c(=O)n2O` [Example 92, Ethyl 6-[(benzylamino)carbonyl]-5,8-dihydroxy-7-oxo-7,8-dihydro-1,8-naphthyridine-3-carboxylate], the IC50 in the experiment with HXB2 virus was less than 100 µM; at HIV integrase it was less than 50 µM.
With `CC(=O)c1c(O)c2cccnc2n(O)c1=O` [Example 93, 3-acetyl-1,4-dihydroxy-1,8-naphthyridin-2(1H)-one], the IC50 in the experiment with HXB2 virus was less than 100 µM; at HIV integrase, greater than 50 µM.
On the same counts, the results for `Cc1n[nH]c2c1c(=O)n(O)c1ncccc21` [Example 94, 5-Hydroxy-3-methyl-1,5-dihydro-4H-pyrazolo[4,3-c]-1,8-naphthyridin-4-one] are less than 100 µM and less than 50 µM.
In the same order, the values of `O=c1c(-c2ccccc2)c(O)c2cc(S(=O)(=O)Nc3ccccc3)cnc2n1O` [Example 95, 5,8-Dihydroxy-7-oxo-N,6-diphenyl-7,8-dihydro-1,8-naphthyridine-3-sulfonamide] are less than 100 µM and less than 50 µM.
On the same counts, the results for `O=c1c(-c2ccccc2)c(O)c2cc(S(=O)(=O)NCc3ccccc3)cnc2n1O` [Example 96, N-benzyl-5,8-dihydroxy-7-oxo-6-phenyl-7,8-dihydro-1,8-naphthyridine-3-sulfonamide] are less than 100 µM and less than 50 µM.
Consider `CCOC(=O)c1c(N)c2cccnc2n(O)c1=O` [Example 97, Ethyl 4-amino-1-hydroxy-2-oxo-1,2-dihydro-1,8-naphthyridine-3-carboxylate], for which the half-maximal inhibitory concentration (IC50) with HXB2 virus was less than 100 µM; at HIV integrase, less than 50 µM.
Regarding `CCOC(=O)c1c(N)c2cc(-c3ccccc3)cnc2n(O)c1=O` [Example 98, Ethyl 4-amino-1-hydroxy-2-oxo-6-phenyl-1,2-dihydro-1,8-naphthyridine-3-carboxylate], the IC50 is less than 100 µM with HXB2 virus and less than 50 µM on HIV integrase.
As to `Nc1cc(=O)n(O)c2ncccc12` [Example 99, 4-Amino-1-hydroxy-1,8-naphthyridin-2(1H)-one], the IC50 in the experiment with HXB2 virus is less than 100 µM; at HIV integrase, less than 50 µM.
Turning to `CC(=O)Nc1cc(=O)n(O)c2ncccc12` [Example 100, N-(1-Hydroxy-2-oxo-1,2-dihydro-1,8-naphthyridin-4-yl)acetamide], the half-inhibitory concentration (IC50) is less than 100 µM in the experiment on HXB2 virus and less than 50 µM at HIV integrase.
As to `O=C(Cc1ccccc1)Nc1cc(=O)n(O)c2ncccc12` [Example 101, N-(1-Hydroxy-2-oxo-1,2-dihydro-1,8-naphthyridin-4-yl)-2-phenylacetamide], the values for the IC50 in the experiment with HXB2 virus and on HIV integrase were less than 100 µM and less than 50 µM, respectively.
On the same counts, the results for `O=C(Nc1cc(=O)n(O)c2ncccc12)c1ccccc1` [Example 102, N-(1-Hydroxy-2-oxo-1,2-dihydro-1,8-naphthyridin-4-yl)benzamide] are less than 100 µM and less than 50 µM.
In the same order, the values of `O=c1cc(Nc2ccccc2)c2cccnc2n1O` [Example 103, 4-Anilino-1-hydroxy-1,8-naphthyridin-2(1H)-one] are less than 100 µM and less than 50 µM.
